Where two headings read alike, the source gives them in different places.
Molecular target: T1, EP4 (Homo sapiens, UniProt P35408)
T1 construct: expressed in transfected cells; membranes prepared by differential centrifugation
Experiment: Prostanoid receptor binding assay (radioligand displacement binding assay)
Experimental: Prostanoid receptor cDNAs corresponding to full length coding sequences are subcloned into the appropriate sites of mammalian expression vectors and transfected into HEK 293(ebna) cells. HEK 293(ebna) cells expressing the individual cDNAs are grown under selection and individual colonies are isolated after 2-3 weeks of growth using the cloning ring method and subsequently expanded into clonal cell lines.
Transfected HEK 293(ebna) cells are maintained in culture, harvested and membranes are prepared by differential centrifugation, following lysis of the cells in the presence of protease inhibitors, for use in receptor binding assays. Prostanoid receptor binding assays (for DP1, DP2 (CRTH2), EP1, EP2, EP3-III, EP4, FP, IP, and TP) are performed in 10 mM MES/KOH (pH 6.0) (EPs, FP and TP) or 10 mM HEPES/KOH (pH 7.4) (DPs and IP), containing 1 mM EDTA, 2.5-30 mM divalent cation and the appropriate radio-ligand. Synthetic compounds are added in DMSO which is kept constant at 1% (v/v) in all incubations. The reaction is initiated by addition of membrane protein. Non-specific binding is determined in the presence of 10 μM of the corresponding non-radioactive prostanoid. Incubations are conducted for 60-120 min at room temperature or 30° C. and terminated by rapid filtration. Specific binding is calculated by subtracting non specific binding from total binding. The residual specific binding at each ligand concentration is calculated and expressed as a function of ligand concentration in order to construct sigmoidal concentration-response curves. The binding affinity of the compounds is determined by calculating the equilibrium inhibition constant (Ki) from the equation Ki=InPt/1+[radio-ligand]/Kd where Kd is the equilibrium dissociation constant for the radio-ligand:receptor interaction and InPt is the inflection point of the dose-response curves.
Abramovitz, M. et al., Biochem, Biophys. Acta, 2000, 1483, pp. 285.

[1] = column marked X when IC50 < 1, read-out: IC50 (nm) X < 1
[2] = column marked X when IC50 > 5, read-out: IC50 (nm) X > 5
[3] = radioligand displacement binding assay, read-out: IC50
[4] = column marked X when IC50 between 1 and 5, read-out: IC50 (nm) 1 < X < 5

T1 sequence (P35408 whole entry): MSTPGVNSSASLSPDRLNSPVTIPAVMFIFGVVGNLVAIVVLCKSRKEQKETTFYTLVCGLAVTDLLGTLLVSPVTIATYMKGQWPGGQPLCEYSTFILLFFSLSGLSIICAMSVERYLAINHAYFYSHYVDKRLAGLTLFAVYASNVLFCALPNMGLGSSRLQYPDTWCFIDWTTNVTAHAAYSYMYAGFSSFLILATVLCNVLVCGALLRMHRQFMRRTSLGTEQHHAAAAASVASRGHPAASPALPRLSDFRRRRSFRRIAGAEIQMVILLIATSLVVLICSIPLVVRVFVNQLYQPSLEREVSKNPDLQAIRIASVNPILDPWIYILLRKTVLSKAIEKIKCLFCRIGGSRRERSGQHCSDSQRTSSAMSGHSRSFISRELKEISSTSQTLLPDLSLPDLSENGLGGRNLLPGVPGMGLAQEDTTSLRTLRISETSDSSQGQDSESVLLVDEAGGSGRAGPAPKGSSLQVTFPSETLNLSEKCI

| Compound | IC50 [1] [nM] | further results |
| --- | --- | --- |
| CN1CCc2c(n(-c3ccc(CCNC(=O)NS(=O)(=O)c4ccc(Cl)cc4)cc3)c3cc(-c4ccccc4)ccc23)C1=O [Example 1-18, 4-chloro-N-[({2-[4-(2-methyl-1-oxo-7-phenyl-1,2,3,4-tetrahydro-9H-beta-carbolin-9-yl)phenyl]ethyl}amino)carbonyl]benzenesulfonamide] | – | IC50 [2]: > 5 nM; IC50 [3]: > 5 nM |
| CN1CCc2c(n(-c3ccc(CCNC(=O)NS(=O)(=O)c4ccc(Cl)cc4)cc3)c3c(Cl)cccc23)C1=O [Example 1-20, 4-chloro-N-[({2-[4-(8-chloro-2-methyl-1-oxo-1,2,3,4-tetrahydro-9H-beta-carbolin-9-yl)phenyl]ethyl}amino)carbonyl]benzenesulfonamide] | – | IC50 [2]: > 5 nM; IC50 [3]: > 5 nM |
| O=C(NCCc1ccc(-n2c3c(c4c(Cl)cc(Cl)cc42)CCN(CC2CC2)C3=O)cc1)NS(=O)(=O)c1ccc(Cl)cc1 [Example 1-7, 4-chloro-N-{[(2-{4-[5,7-dichloro-2-(cyclopropylmethyl)-1-oxo-1,2,3,4-tetrahydro-9H-beta-carbolin-9-yl]phenyl}ethyl)amino]carbonyl}benzenesulfonamide] | – | IC50 [4]: 1 to 5 nM; IC50 [3]: 1 to 5 nM |
| CN1CCc2c(n(-c3ccc(CCNC(=O)NS(=O)(=O)c4ccc(Cl)cc4)cc3)c3cc(S(C)(=O)=O)ccc23)C1=O [Example 1-32, 4-chloro-N-{[(2-{4-[2-methyl-7-(methylsulfonyl)-1-oxo-1,2,3,4-tetrahydro-9H-beta-carbolin-9-yl]phenyl}ethyl)amino]carbonyl}benzenesulfonamide] | – | IC50 [4]: 1 to 5 nM; IC50 [3]: 1 to 5 nM |
| O=C(NCCc1ccc(-n2c3c(c4c(Cl)cc(Cl)cc42)CCN(c2ccccc2)C3=O)cc1)NS(=O)(=O)c1ccc(Cl)cc1 [Example 1-9, 4-chloro-N-[({2-[4-(5,7-dichloro-1-oxo-2-phenyl-1,2,3,4-tetrahydro-9H-beta-carbolin-9-yl)phenyl]ethyl}amino)carbonyl]benzenesulfonamide] | – | IC50 [2]: > 5 nM; IC50 [3]: > 5 nM |
| COC(=O)c1ccc2c(c1)c1c(n2-c2ccc(CC3(NC(=O)NS(=O)(=O)c4ccc(Cl)cc4)CC3)cc2)C(=O)N(C)CC1 [Example 3-2, methyl 9-[4-({1-[({[(4-chlorophenyl)sulfonyl]amino}carbonyl)amino]cyclopropyl}methyl)phenyl]-2-methyl-1-oxo-2,3,4,9-tetrahydro-1H-beta-carboline-6-carboxylate] | < 1 | – |
| CN1CCc2c(n(-c3ccc(CC4(NC(=O)NS(=O)(=O)c5ccc(Cl)cc5)CC4)cc3)c3ccc(-c4ccccc4)cc23)C1=O [Example 1-1, 4-chloro-N-[({1-[4-(2-methyl-1-oxo-6-phenyl-1,2,3,4-tetrahydro-9H-beta-carbolin-9-yl)benzyl]cyclopropyl}amino)carbonyl]benzenesulfonamide] | – | IC50 [4]: 1 to 5 nM; IC50 [3]: 1 to 5 nM |
| CN1CCc2c(n(-c3ccc(CC4(NC(=O)NS(=O)(=O)c5ccc(Cl)cc5)CC4)cc3)c3ccc(S(=O)(=O)c4ccccc4)cc23)C1=O [Example 1-37, 4-chloro-N-{[(1-{4-[2-methyl-1-oxo-6-(phenylsulfonyl)-1,2,3,4-tetrahydro-9H-beta-carbolin-9-yl]benzyl}cyclopropyl)amino]carbonyl}benzenesulfonamide] | < 1 | – |
| CN1CCc2c(n(-c3ccc(CC4(NC(=O)NS(=O)(=O)c5ccc(Cl)cc5)CC4)cc3)c3ccc(-c4cccnc4)cc23)C1=O [Example 1-24, 4-chloro-N-[({1-[4-(2-methyl-1-oxo-6-pyridin-3-yl-1,2,3,4-tetrahydro-9H-beta-carbolin-9-yl)benzyl]cyclopropyl}amino)carbonyl]benzenesulfonamide] | < 1 | – |
| CN1CCc2c(n(-c3ccc(CCNC(=O)NS(=O)(=O)c4ccc(Cl)cc4)cc3)c3cccc(Br)c23)C1=O [Example 1-14, N-[({2-[4-(5-bromo-2-methyl-1-oxo-1,2,3,4-tetrahydro-9H-beta-carbolin-9-yl)phenyl]ethyl}amino)carbonyl]-4-chlorobenzenesulfonamide] | < 1 | – |
| CN1CCc2c(n(-c3ccc(CC4(NC(=O)NS(=O)(=O)c5ccc(Cl)cc5)CC4)cc3)c3ccc(C(=O)O)cc23)C1=O [Example 3-3, 9-[4-({1-[({[(4-chlorophenyl)sulfonyl]amino}carbonyl)amino]cyclopropyl}methyl)phenyl]-2-methyl-1-oxo-2,3,4,9-tetrahydro-1H-beta-carboline-6-carboxylic acid] | < 1 | – |
| CN1CCc2c(n(-c3ccc(CCNC(=O)NS(=O)(=O)c4ccc(Cl)cc4)cc3)c3cccc(C4CC4)c23)C1=O [Example 2-3, 4-chloro-N-[({2-[4-(5-cyclopropyl-2-methyl-1-oxo-1,2,3,4-tetrahydro-9H-beta-carbolin-9-yl)phenyl]ethyl}amino)carbonyl]benzenesulfonamide] | < 1 | – |
| CN1CCc2c(n(-c3ccc(CC4(NC(=O)NS(=O)(=O)c5ccc(Cl)cc5)CC4)cc3)c3ccc(Br)cc23)C1=O [Example 1-16, N-[({1-[4-(6-bromo-2-methyl-1-oxo-1,2,3,4-tetrahydro-9H-beta-carbolin-9-yl)benzyl]cyclopropyl}amino)carbonyl]-4-chlorobenzenesulfonamide] | < 1 | – |
| CN1CCc2c(n(-c3ccc(CCNC(=O)NS(=O)(=O)c4ccc(Cl)cc4)cc3)c3ccc(-c4ccccn4)cc23)C1=O [Example 1-22, 4-chloro-N-[({2-[4-(2-methyl-1-oxo-6-pyridin-2-yl-1,2,3,4-tetrahydro-9H-beta-carbolin-9-yl)phenyl]ethyl}amino)carbonyl]benzenesulfonamide] | < 1 | – |
| CN1CCc2c(n(-c3ccc(CC4(NC(=O)NS(=O)(=O)c5ccc(Cl)cc5)CC4)cc3)c3ccc(-c4ccsc4)cc23)C1=O [Example 1-25, 4-chloro-N-{[(1-{4-[2-methyl-1-oxo-6-(3-thienyl)-1,2,3,4-tetrahydro-9H-beta-carbolin-9-yl]benzyl}cyclopropyl)amino]carbonyl}benzenesulfonamide] | < 1 | – |

Now from value to compound, other results behind:

| IC50 [1] [nM] | Compound | further results |
| --- | --- | --- |
| < 1 | CN1CCc2c(n(-c3ccc(CCNC(=O)NS(=O)(=O)c4ccc(Cl)cc4)cc3)c3ccc(-c4ccc(F)cc4)cc23)C1=O [Example 1-19, 4-chloro-N-{[(2-{4-[6-(4-fluorophenyl)-2-methyl-1-oxo-1,2,3,4-tetrahydro-9H-beta-carbolin-9-yl]phenyl}ethyl)amino]carbonyl}benzenesulfonamide] | – |
| < 1 | CN1CCc2c(n(-c3ccc(CC4(NC(=O)NS(=O)(=O)c5ccc(Cl)cc5)CC4)cc3)c3ccc(S(C)(=O)=O)cc23)C1=O [Example 1-34, 4-chloro-N-{[(1-{4-[2-methyl-6-(methylsulfonyl)-1-oxo-1,2,3,4-tetrahydro-9H-beta-carbolin-9-yl]benzyl}cyclopropyl)amino]carbonyl}benzenesulfonamide] | – |
| < 1 | Cc1nnc(-c2ccc3c(c2)c2c(n3-c3ccc(CC4(NC(=O)NS(=O)(=O)c5ccc(Cl)cc5)CC4)cc3)C(=O)N(C)CC2)o1 [Example 3-1, sodium[(4-chlorophenyl)sulfonyl]{[(1-{4-[2-methyl-6-(5-methyl-1,3,4-oxadiazol-2-yl)-1-oxo-1,2,3,4-tetrahydro-9H-beta-carbolin-9-yl]benzyl}cyclopropyl)amino]carbonyl}azanide] | – |
| < 1 | CN1CCc2c(n(-c3ccc(CCNC(=O)NS(=O)(=O)c4ccc(Cl)cc4)cc3)c3cc(Br)ccc23)C1=O [Example 1-15, N-[({2-[4-(7-bromo-2-methyl-1-oxo-1,2,3,4-tetrahydro-9H-beta-carbolin-9-yl)phenyl]ethyl}amino)carbonyl]-4-chlorobenzenesulfonamide] | – |
| < 1 | CN1CCc2c(n(-c3ccc(CCNC(=O)NS(=O)(=O)c4ccc(Cl)cc4)cc3)c3ccc(Cl)cc23)C1=O [Example 1-4, 4-chloro-N-[({2-[4-(6-chloro-2-methyl-1-oxo-1,2,3,4-tetrahydro-9H-beta-carbolin-9-yl)phenyl]ethyl}amino)carbonyl]benzenesulfonamide] | – |
| < 1 | CN1CCc2c(n(-c3ccc(CCNC(=O)NS(=O)(=O)c4ccc(Cl)cc4)cc3)c3cccc(-c4ccccc4)c23)C1=O [Example 1-17, 4-chloro-N-[({2-[4-(2-methyl-1-oxo-5-phenyl-1,2,3,4-tetrahydro-9H-beta-carbolin-9-yl)phenyl]ethyl}amino)carbonyl]benzenesulfonamide] | – |
| < 1 | CN1CCc2c(n(-c3ccc(CCNC(=O)NS(=O)(=O)c4ccc(Cl)cc4)cc3)c3cc(Cl)ccc23)C1=O [Example 1-12, 4-chloro-N-[({2-[4-(7-chloro-2-methyl-1-oxo-1,2,3,4-tetrahydro-9H-beta-carbolin-9-yl)phenyl]ethyl}amino)carbonyl]benzenesulfonamide] | – |

Reference: patent US8685999B2, “Beta carboline sulphonylurea derivatives as EP4 receptor antagonists” (Merck Sharp & Dohme Corp., priority 2008, dated 2014)
